Measured values as given in ChEMBL document CHEMBL3826967, “Small molecule non-peptide inhibitors of botulinum neurotoxin serotype E: Structure-activity relationship and a pharmacophore model” (Bioorg Med Chem, 2016).
pIC50, pKi: −log10 of the molar value.

Assays:
[1] = target: T1, Botulinum neurotoxin type E (Clostridium botulinum) (UniProt Q00496); test: Inhibition of endopeptidase activity of Clostridium botulinum BoNT/E light chain using SNAP-25 as substrate at 20 uM after 15 mins by HPLC analysis
T1 sequence (whole entry): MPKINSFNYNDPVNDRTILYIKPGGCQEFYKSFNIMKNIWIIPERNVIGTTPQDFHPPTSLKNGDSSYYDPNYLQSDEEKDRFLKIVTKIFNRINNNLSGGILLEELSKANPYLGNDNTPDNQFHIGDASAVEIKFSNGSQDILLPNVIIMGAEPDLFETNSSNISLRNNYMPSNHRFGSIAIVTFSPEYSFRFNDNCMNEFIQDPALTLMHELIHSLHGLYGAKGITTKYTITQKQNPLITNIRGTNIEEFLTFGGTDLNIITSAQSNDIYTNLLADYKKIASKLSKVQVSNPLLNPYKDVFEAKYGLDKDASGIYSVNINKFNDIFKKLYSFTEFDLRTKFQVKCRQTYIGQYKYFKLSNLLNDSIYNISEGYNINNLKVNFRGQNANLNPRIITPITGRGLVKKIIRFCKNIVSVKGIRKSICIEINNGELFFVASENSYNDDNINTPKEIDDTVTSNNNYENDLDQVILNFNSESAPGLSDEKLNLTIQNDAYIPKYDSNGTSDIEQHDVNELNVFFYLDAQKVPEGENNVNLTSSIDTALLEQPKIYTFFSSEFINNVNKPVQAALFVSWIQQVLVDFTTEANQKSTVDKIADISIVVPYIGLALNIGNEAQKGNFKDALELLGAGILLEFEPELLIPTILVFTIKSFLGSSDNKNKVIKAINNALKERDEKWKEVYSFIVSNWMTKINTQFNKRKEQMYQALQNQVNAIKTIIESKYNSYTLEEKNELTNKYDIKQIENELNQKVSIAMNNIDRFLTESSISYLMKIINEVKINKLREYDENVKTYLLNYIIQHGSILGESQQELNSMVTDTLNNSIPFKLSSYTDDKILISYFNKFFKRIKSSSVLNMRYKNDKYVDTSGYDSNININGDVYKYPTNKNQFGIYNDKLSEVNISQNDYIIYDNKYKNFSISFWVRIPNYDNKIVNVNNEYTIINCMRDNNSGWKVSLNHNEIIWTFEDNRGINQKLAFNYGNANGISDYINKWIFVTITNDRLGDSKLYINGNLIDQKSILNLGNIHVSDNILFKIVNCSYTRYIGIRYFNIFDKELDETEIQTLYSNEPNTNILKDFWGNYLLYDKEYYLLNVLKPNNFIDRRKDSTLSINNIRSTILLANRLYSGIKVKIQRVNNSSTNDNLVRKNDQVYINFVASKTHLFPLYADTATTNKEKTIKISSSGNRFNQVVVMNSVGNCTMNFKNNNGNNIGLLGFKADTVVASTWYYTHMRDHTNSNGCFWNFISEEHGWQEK

[2] = target: T2, Botulinum neurotoxin type E (Clostridium botulinum, UniProt Q00496); test: (§1) Inhibition of endopeptidase activity of Clostridium botulinum BoNT/E light chain using SNAP-25 as substrate after 15 mins by HPLC analysis
T2 sequence (Q00496 whole entry): T1 sequence (whole entry)

[3] = target: T2, Botulinum neurotoxin type E; test: Inhibition of protease activity of Clostridium botulinum BoNT/E light chain using SNAP-25 as substrate after 15 mins by Dixon plot analysis
[4] = target: T1, Botulinum neurotoxin type E (Clostridium botulinum); test: as §1

Structure (SMILES) | inhibition [1] [%] | also measured
COc1ccc2c(c1)Cc1cc(NC(=O)c3ccccc3-c3ccccc3C(=O)O)ccc1-2 | 20.9 | 
CC(=O)Nc1cc2c(cc1N)-c1ccccc1C2 | 13.7 | 
O=c1c2cc(Cl)ccc2c2ccc(Cl)cc2c(=O)n1-c1ccc2c(c1)Cc1cc(Cl)cc(Cl)c1-2 | 68.9 | pIC50 [2]: 5.01
CNc1ccc(C(=O)c2ccccc2C(=O)O)cc1[N+](=O)[O-] | 14.1 | 
Cc1cccc(C)c1NC(=S)NNC(=O)c1ccncc1 | 28 | 
O=C(O)c1ccccc1C(=O)c1ccc2c3c(cccc13)CC2 | 11.5 | 
O=C(O)c1ccc(C(=O)c2ccccc2C(=O)O)cc1 | 13.7 | 
O=C1c2ccccc2-c2cc(Br)c(NC(=O)C3CCCCC3C(=O)O)cc21 (centres undefined) | 19.3 | 
O=C(O)C1CCCCC1C(=O)Nc1ccc2c(c1)Cc1ccccc1-2 (centres undefined) | 12 | 
O=C(O)c1ccccc1-c1ccccc1C(=O)Nc1ccc2c(c1)C(=O)c1ccccc1-2 | 20.2 | 
O=c1c2cc(Cl)ccc2c2ccc(Cl)cc2c(=O)n1-c1ccc2c(c1)Cc1ccccc1-2 | 48 | 
O=C(O)c1ccccc1-c1ccccc1C(=O)Nc1ccc2c(c1)Cc1ccccc1-2 | 37.2 | 
O=C(O)c1ccccc1C(=O)Nc1cc2c(cc1Br)-c1ccccc1C2=O | 26.2 | 
O=C(O)c1ccccc1C(=O)c1ccc(-c2ccccc2)cc1 | 37.8 | 
O=C(O)c1cccc(F)c1C(=O)c1ccc2ccccc2c1 | 43.9 | 
O=C(Nc1ccccc1)c1cc2cc3ccccc3cc2cc1O | 70.1 | pIC50 [2]: 5.62
O=C(O)c1ccccc1-c1ccccc1C(=O)Nc1ccc2c(c1)C(O)c1ccccc1-2 (centres undefined) | 20 | 
O=C(O)c1ccccc1C(=O)c1cc(Cl)cc(Cl)c1O | 19.2 | 
O=C(O)c1ccccc1C(=O)c1ccc2c(c1)CCC2 | 16.3 | 

Structure (SMILES) | inhibition [1] [%] | also measured
O=C(O)/C=C/C(=O)Nc1ccc2c(c1)Cc1cc([N+](=O)[O-])ccc1-2 | 19.5 | 
O=c1c2cc([N+](=O)[O-])ccc2c2ccc([N+](=O)[O-])cc2c(=O)n1-c1ccc2c(c1)Cc1ccccc1-2 | 24.7 | 
O=C(O)c1cc(Cl)ccc1-c1ccc(Cl)cc1C(=O)Nc1ccc2c(c1)Cc1ccccc1-2 | 88.3 | pIC50 [2]: 5.49
O=C(O)c1ccccc1C(=O)CCC(=O)c1ccccc1C(=O)O | 21.2 | 
O=C(O)c1ccccc1C(=O)c1ccc2oc(O)nc2c1 | 35 | 
O=C(NNC(=S)Nc1ccccc1Cl)c1ccncc1 | 19 | 
O=C(Nc1ccc2c(c1)C(=O)c1ccccc1-2)c1ccccc1 | 12.7 | 
O=C(O)c1ccccc1C(=O)Nc1ccc2c(c1)C(=O)c1ccccc1-2 | 14.8 | 
O=C(O)c1cc([N+](=O)[O-])ccc1-c1ccc([N+](=O)[O-])cc1C(=O)Nc1ccc2c(c1)Cc1ccccc1-2 | 82 | pIC50 [2]: 5.57
O=C1c2ccccc2-c2ccc(NC(=O)C3CCCCC3C(=O)O)cc21 (centres undefined) | 18.3 | 
O=C(O)c1ccccc1-c1ccccc1C(=O)Nc1ccc2c(c1)Cc1cc(F)ccc1-2 | 47.6 | 
O=C(O)c1ccccc1C(=O)c1ccc(O)cc1O | 14.7 | 
O=C(O)c1ccccc1C(=O)c1ccc(Cl)cc1 | 0 | 
c1ccc2c(c1)Cc1ccccc1-2 | 17.3 | 
O=C(O)c1ccccc1C(=O)c1ccc2c(c1)Cc1ccccc1-2 | 80.1 | pKi [3]: 5.89
O=C(O)c1ccccc1C(=O)c1ccccc1 | 15.9 | 
O=C(O)c1cc(Cl)ccc1-c1ccc(Cl)cc1C(=O)Nc1ccc2c(c1)Cc1cc(Cl)cc(Cl)c1-2 | 79.1 | pIC50 [2]: 5.52; inhibition [4]: Dose-dependent effect
Cc1cc2c(cc1C(=O)c1ccccc1C(=O)O)CCCC2 | 24.8 | 
